Molecular target: T1, UGT76G1 (Stevia rebaudiana, UniProt Q6VAB4, S195Q)
T1 construct: codon-optimised gene in pRSFDuet-1 (NdeI/XhoI), co-expressed with a SuSy in E. coli BL21(DE3), crude extract
Test: HPLC of RebD and RebM, one-pot coupled with McSuSy S31D, E. coli crude extract
Type: biochemical
Conditions: sucrose, UDP recycling, potassium phosphate pH 7.2, 40°C; RebD formed in situ as intermediate

T1 sequence (Q6VAB4 whole entry S195Q): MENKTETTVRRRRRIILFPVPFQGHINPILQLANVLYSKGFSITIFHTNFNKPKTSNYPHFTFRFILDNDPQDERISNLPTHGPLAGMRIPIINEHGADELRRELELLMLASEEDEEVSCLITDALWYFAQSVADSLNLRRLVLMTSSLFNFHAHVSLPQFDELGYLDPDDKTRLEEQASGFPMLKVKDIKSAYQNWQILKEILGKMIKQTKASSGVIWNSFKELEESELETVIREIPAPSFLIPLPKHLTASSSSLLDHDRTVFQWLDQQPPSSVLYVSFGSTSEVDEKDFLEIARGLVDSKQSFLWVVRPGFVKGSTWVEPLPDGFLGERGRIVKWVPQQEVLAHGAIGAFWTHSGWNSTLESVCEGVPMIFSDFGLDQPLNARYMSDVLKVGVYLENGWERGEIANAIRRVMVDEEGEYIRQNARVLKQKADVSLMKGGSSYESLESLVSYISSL

**Q.** For `C=C1C[C@@]23CC[C@H]4[C@@](C)(CCC[C@@]4(C)C(=O)O[C@@H]4O[C@H](CO)[C@@H](O)[C@H](O)[C@H]4O[C@@H]4O[C@H](CO)[C@@H](O)[C@H](O)[C@H]4O)[C@@H]2CC[C@]1(O[C@@H]1O[C@H](CO)[C@@H](O)[C@H](O[C@@H]2O[C@H](CO)[C@@H](O)[C@H](O)[C@H]2O)[C@H]1O[C@@H]1O[C@H](CO)[C@@H](O)[C@H](O)[C@H]1O)C3` [RebD], which “HPLC of RebD and RebM, one-pot coupled with McSuSy S31D, E. coli crude extract” value is on record?
**A.** Its value is “second glycosylation reaction that RebD was converted into RebM by UGT76G1_S195Q”.

From publication PMC10465243, “Identification of sucrose synthase from Micractinium conductrix to favor biocatalytic glycosylation” (Frontiers in Microbiology, 2023)
